These results are taken from paper PMC4129108, “The natural triterpene 3β,6β,16β-trihydroxy-lup-20(29)-ene obtained from the flowers of Combretum leprosum induces apoptosis in MCF-7 breast cancer cells” (BMC Complementary and Alternative Medicine, 2014).

Converted amounts (≈) assume the structure as drawn.

The test system of experiment [1] is S. cerevisiae EG110 (sod2Δ). As to the kind of experiment: Yeast survival assay, EG110 (sod2Δ). It counts as cell-based, Saccharomyces cerevisiae. Conditions: positive control H2O2 5 mM, 1 h in PBS. The protocol: (§1) Media, solutions and buffers were prepared according to Burke et al.. YPD medium (0.5% yeast extract, 2% peptone, 2% glucose) was used for routine growth. Synthetic medium SC (0.67% yeast nitrogen base, 0.1% ammonium sulfate, 2% glucose) supplemented with the appropriate amino acids and bases ([…]) was used for the detection of mutations.
(§2) Stationary phase (STAT) cultures were obtained by inoculation of a single colony into liquid YPD. We chose to work in the stationary phase of growth because this resembles most cells of multicellular organisms in important aspects: (i) most energy comes from mitochondrial respiration; (ii) the cells have left the active cell cycle and have entered the Go phase; and (iii) damage accumulates over time.
(§3) STAT cells (1 × 10^8 cells/mL) were exposed to TTHL (10–500 μg/mL) and incubated under growth conditions for 1 h in PBS at 30°C. Cells were then washed and treated with H2O2 (5 mM) in PBS for another hour. Suitable aliquots were plated in triplicate on solid YPD (2–3 days, 30°C) and colony-forming units were counted. Sensitivity was expressed as a percentage of survival in relation to the negative control (solvent).

In experiment [2] the test system is S. cerevisiae EG103 (SOD-WT). As to the kind of experiment: Yeast survival assay, EG103 (SOD-WT). It counts as cell-based, Saccharomyces cerevisiae. Conditions: positive control H2O2 5 mM, 1 h in PBS. The method, then:
as §1, §2, §3

In experiment [3] the test system is S. cerevisiae EG118 (sod1Δ). Nature of the experiment: Yeast survival assay, EG118 (sod1Δ). It counts as cell-based, Saccharomyces cerevisiae. Conditions: positive control H2O2 5 mM, 1 h in PBS. The method, then: as §1, §2, §3
For experiment [4], the system named is S. cerevisiae EG133 (sod1Δsod2Δ). Nature of the experiment: Yeast survival assay, EG133 (sod1Δsod2Δ). The conditions noted are these: positive control H2O2 5 mM, 1 h in PBS. It counts as cell-based, Saccharomyces cerevisiae. The protocol:
as §1, §2, §3

Another experiment concerns tumor cell lines. Nature of the experiment: XTT cell viability assay, panel of tumor cell lines. Format: cell-based. Conditions: Homo sapiens, read-out: IC50 values in tumor cell lines (range over the panel). The method, then:
(§4) The human cell lines MCF-7 (breast adenocarcinoma), HepG2 (hepatoma), T24 (bladder cancer), CACO-2 (colorectal adenocarcinoma) and MRC5 (lung normal fibroblast) were obtained from the Rio de Janeiro Cell Bank (Rio de Janeiro, RJ, Brazil). The HCT116 cell (colorectal carcinoma), and HT29 cell (colorectal adenocarcinoma) were kindly provided by Dr. Annette K. Larsen (Institut National de la Santé et de la Recherche Médicale - INSERM, Paris, França). All cell lines except MCF-7 were grown in DMEM supplemented with 10% or 20% (for CACO-2) FBS, 100 units.mL^-1 penicillin and 100 μg.mL^-1 streptomycin at 37°C in a humidified atmosphere of 5% CO2. MCF-7 cells were maintained in RPMI-1640 supplemented with 20% FBS at the same conditions described above.
The cytotoxic potential of the TTHL was evaluated by the XTT assay in human tumor cell lines as well as in MRC5 normal fibroblasts. Cells (1 × 10^4 cells) were seeded on 96-well plates in growth medium and incubated overnight. […] At the end of each treatment, cell viability was assessed according to the manufacturer’s instructions. […] Absorbance was measured with a SpectraMax reader (Bio-Rad, USA) at a test wavelength of 492 nm (A492) and a reference wavelength of 690 nm (A690). […] The absorbance of negative control cells was set as 100% viability, and the values for treated cells were calculated as a percentage of the control. […]
Background: Tetrazolium assays rely on reduction of a dye to a coloured formazan, in cell work by metabolically active cells.

For the next experiment, the system named is HepG2 (hepatoma). Nature of the experiment: XTT cell viability assay, HepG2. It counts as cell-based, human. Conditions: Homo sapiens; HepG2, 24 h treatment, XTT. The method, then: as §4
(§5) The cytotoxic potential of the TTHL was evaluated by the XTT assay in human tumor cell lines as well as in MRC5 normal fibroblasts. Cells (1 × 10^4 cells) were seeded on 96-well plates in growth medium and incubated overnight. Afterwards, TTHL (0.5, 1.0, 2.5, 5.0, and 10 μg/mL) was added to each well and incubated for 24, 48, 72, and 120 h. Mitoxantrone, a cytostatic anthracenedione that intercalates in DNA and increases the incidence of double-strand breaks by stabilizing the cleavable complex of topoisomerase II and DNA, was used as positive control. At the end of each treatment, cell viability was assessed according to the manufacturer’s instructions. Briefly, after discarding the medium, 1 mL of XTT labeling mixture was added to the cells and incubated for 2 h at 37°C. Absorbance was measured with a SpectraMax reader (Bio-Rad, USA) at a test wavelength of 492 nm (A492) and a reference wavelength of 690 nm (A690). The final result corresponds to A492-A690. The absorbance of negative control cells was set as 100% viability, and the values for treated cells were calculated as a percentage of the control.
(§6) The IC20, IC50, and IC80 values and their 95% confidence intervals (CI 95%) were obtained by nonlinear regression using GraphPad Prism v5 program (Intuitive Software for Science, San Diego, CA, USA). Selective index (SI) was calculated by IC50 in MRC5 cells/IC50 in tumoral cells. All experiments were independently repeated at least three times, with triplicate samples for each treatment. Results are expressed as means ± standard deviation (SD). Data were analyzed by one-way analysis of variance (ANOVA), and means were compared using Tukey test, with P ≤ 0.05 considered as statistically significant.

Experiment [5] has as its system HCT116 cell (colorectal carcinoma). As to the kind of experiment: XTT cell viability assay, HCT116. Format: cell-based, human. The conditions noted are these: Homo sapiens, HCT-116; HCT116, 24 h treatment, XTT. The protocol: as §4, §5, §6
Experiment [6] has as its system MCF-7 (breast adenocarcinoma). As to the kind of experiment: XTT cell viability assay, MCF-7. Conditions: Homo sapiens, MCF7; MCF-7, 24 h treatment, XTT. It counts as cell-based, human. The protocol:
as §4, §5, §6

In experiment [7] the test system is CACO-2 (colorectal adenocarcinoma). As to the kind of experiment: XTT cell viability assay, CACO-2. Format: cell-based, human. Conditions: Homo sapiens; CACO-2, 24 h treatment, XTT. The protocol: as §4, §5, §6
Experiment [8] deals with HT29 cell (colorectal adenocarcinoma). As to the kind of experiment: XTT cell viability assay, HT29. It counts as cell-based, human. Conditions: Homo sapiens, HT-29; HT29, 24 h treatment, XTT. The protocol: as §4, §5, §6
Experiment [9] deals with MRC5 (lung normal fibroblast). As to the kind of experiment: XTT cell viability assay, MRC5 normal fibroblasts. It counts as cell-based. Conditions: Homo sapiens, MRC5, 24 h treatment. The method, then:
as §4, §5, §6

The subject of a further experiment is T24 (bladder cancer). As to the kind of experiment: XTT cell viability assay, T24. It counts as cell-based, human. The conditions noted are these: Homo sapiens; T24, 24 h treatment, XTT. The protocol:
as §4, §5, §6

Take `OO` [H2O2, hydrogen peroxide, reference compound]: the “survival (percentage in relation to negative control)” value worked out at 19.10 ± 4.03% in experiment [1], 63.03 ± 4.12% in [2], 16.27 ± 4.88% in experiment [3] and 19.33 ± 2.10% in [4].
The IC50 is the point on the concentration scale where inhibition reaches its midpoint. For the compound `O=C1c2c(O)ccc(O)c2C(=O)c2c(NCCNCCO)ccc(NCCNCCO)c21` [MXT, mitoxantrone, reference compound], the IC50 in the experiment on tumor cell lines was 0.61 to 3.5 µg/mL (≈ 1.37 to 7.87 µM); in the experiment on HepG2 (hepatoma), 3.5 ± 0.39 µg/mL (≈ 7.87 µM); in experiment [5] it was 0.61 ± 0.67 µg/mL (≈ 1.37 µM); in [6] it was 0.87 ± 1.59 µg/mL (≈ 1.96 µM); in experiment [7] it was 2.4 ± 1.81 µg/mL (≈ 5.4 µM); in [8], 0.88 ± 2.33 µg/mL (≈ 1.98 µM). Moreover, the IC50 worked out at 2.88 ± 1.44 µg/mL (≈ 6.48 µM) in [9] and 2.5 ± 0.62 µg/mL (≈ 5.62 µM) in the experiment with T24 (bladder cancer).
